Test results as given in article doi:10.1101/2024.08.13.607785v1 (biorxiv, 2024).

Tests used:
Set-up in all cases: species or system mixed lysate of K562, MV4-11, THP-1, NCI-H1155
[1] = target: Isoform 3 of Serine/threonine-protein kinase SIK3 ; SIK3-7 ; Q9Y2K2-7 (Homo sapiens, UniProt Q9Y2K2); conditions: DIA-MS residual binding; binder
[2] = target: T1, Dual specificity mitogen-activated protein kinase kinase 5 ; MAP2K5 ; Q13163 (Homo sapiens, UniProt Q13163); conditions: DIA-MS residual binding; binder
T1 sequence (Q13163 1-448): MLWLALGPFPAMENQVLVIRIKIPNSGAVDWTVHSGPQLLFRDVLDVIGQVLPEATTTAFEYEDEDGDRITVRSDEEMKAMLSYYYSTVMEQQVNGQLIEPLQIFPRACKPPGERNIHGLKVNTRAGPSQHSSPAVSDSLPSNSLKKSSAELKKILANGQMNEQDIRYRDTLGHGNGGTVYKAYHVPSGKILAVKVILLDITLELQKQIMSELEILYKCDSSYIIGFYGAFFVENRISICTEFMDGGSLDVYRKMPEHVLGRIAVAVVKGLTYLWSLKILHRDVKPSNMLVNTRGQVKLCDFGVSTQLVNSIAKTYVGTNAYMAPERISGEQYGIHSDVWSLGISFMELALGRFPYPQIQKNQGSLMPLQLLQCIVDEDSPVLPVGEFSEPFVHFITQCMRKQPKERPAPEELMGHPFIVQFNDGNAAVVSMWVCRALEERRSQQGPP

[3] = target: Activin receptor type-1B ; ACVR1B ; P36896 (Homo sapiens, UniProt P36896); conditions: DIA-MS residual binding; binder
Activin receptor type-1B ; ACVR1B ; P36896, sequence (P36896 whole entry): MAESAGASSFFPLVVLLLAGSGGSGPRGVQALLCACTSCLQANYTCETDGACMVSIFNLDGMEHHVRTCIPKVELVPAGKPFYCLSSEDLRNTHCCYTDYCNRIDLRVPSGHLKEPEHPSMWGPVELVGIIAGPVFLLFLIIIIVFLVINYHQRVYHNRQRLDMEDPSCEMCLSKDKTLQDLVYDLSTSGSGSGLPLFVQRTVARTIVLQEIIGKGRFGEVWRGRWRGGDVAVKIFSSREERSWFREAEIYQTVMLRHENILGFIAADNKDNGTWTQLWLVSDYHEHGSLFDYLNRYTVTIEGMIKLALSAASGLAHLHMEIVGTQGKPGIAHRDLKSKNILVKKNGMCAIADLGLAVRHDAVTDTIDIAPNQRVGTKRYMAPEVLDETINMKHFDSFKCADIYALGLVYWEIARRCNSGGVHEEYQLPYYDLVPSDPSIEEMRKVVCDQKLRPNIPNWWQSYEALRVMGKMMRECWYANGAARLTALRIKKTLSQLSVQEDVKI

[4] = target: T2, Serine/threonine-protein kinase NLK ; NLK ; Q9UBE8 (Homo sapiens, UniProt Q9UBE8); conditions: DIA-MS residual binding; binder
T2 sequence (Q9UBE8 1-527): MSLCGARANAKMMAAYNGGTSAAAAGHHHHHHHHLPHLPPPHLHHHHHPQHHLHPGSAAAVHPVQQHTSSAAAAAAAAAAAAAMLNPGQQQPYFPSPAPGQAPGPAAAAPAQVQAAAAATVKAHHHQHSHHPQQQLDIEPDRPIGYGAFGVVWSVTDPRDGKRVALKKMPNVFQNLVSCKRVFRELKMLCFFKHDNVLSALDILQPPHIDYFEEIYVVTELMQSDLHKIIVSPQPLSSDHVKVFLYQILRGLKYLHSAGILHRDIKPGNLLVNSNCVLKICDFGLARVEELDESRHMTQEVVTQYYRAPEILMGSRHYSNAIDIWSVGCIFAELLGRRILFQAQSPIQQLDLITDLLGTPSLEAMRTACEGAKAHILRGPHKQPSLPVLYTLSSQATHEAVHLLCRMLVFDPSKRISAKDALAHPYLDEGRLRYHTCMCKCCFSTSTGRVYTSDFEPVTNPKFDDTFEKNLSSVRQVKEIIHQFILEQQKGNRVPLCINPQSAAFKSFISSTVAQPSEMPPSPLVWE

[5] = target: Serine/threonine-protein kinase 25 ; STK25 ; O00506 (Homo sapiens, UniProt O00506); conditions: binder
Serine/threonine-protein kinase 25 ; STK25 ; O00506, sequence (O00506 whole entry, one chain of several): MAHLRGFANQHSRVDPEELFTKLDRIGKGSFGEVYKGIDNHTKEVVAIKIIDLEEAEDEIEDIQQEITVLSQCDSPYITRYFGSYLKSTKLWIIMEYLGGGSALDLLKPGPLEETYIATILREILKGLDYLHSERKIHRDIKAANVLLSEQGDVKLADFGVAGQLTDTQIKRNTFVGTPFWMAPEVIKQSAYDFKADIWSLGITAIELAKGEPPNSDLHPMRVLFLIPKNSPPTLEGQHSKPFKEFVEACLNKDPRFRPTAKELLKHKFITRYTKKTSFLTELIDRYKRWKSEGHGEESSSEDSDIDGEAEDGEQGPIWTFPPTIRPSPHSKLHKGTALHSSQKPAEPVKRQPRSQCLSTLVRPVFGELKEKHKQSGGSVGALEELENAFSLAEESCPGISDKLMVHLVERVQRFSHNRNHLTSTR

[6] = target: Ephrin type-A receptor 1 ; EPHA1 ; P21709 (Homo sapiens, UniProt P21709); conditions: DIA-MS residual binding; binder
Ephrin type-A receptor 1 ; EPHA1 ; P21709, sequence (P21709 whole entry): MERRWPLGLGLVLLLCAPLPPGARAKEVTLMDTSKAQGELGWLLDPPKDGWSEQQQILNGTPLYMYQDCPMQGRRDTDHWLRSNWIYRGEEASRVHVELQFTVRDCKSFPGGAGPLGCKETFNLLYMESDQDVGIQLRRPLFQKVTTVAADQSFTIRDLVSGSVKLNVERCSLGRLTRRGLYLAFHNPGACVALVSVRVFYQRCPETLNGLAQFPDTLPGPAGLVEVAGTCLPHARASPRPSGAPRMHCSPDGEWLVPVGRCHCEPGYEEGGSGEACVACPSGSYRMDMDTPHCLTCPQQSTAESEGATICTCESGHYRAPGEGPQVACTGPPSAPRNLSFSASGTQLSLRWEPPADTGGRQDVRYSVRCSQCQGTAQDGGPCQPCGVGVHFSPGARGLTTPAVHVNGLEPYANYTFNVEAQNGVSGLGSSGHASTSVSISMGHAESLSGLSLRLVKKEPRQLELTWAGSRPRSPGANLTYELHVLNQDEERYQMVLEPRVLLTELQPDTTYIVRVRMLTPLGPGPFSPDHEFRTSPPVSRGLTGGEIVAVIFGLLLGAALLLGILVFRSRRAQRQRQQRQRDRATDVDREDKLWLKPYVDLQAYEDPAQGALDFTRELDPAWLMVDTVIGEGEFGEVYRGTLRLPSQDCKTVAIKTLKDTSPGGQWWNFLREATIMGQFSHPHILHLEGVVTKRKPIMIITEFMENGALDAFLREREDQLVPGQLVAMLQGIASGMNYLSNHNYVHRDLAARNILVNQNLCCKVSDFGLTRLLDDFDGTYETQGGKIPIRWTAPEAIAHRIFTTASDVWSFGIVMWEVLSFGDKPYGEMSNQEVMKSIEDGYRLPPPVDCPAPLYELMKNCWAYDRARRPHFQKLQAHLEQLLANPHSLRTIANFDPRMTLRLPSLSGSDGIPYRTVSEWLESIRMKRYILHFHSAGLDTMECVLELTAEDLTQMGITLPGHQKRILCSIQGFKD

[7] = target: T3, Tyrosine-protein kinase Tec ; TEC ; P42680 (Homo sapiens, UniProt P42680); conditions: binder
T3 sequence (P42680 1-631): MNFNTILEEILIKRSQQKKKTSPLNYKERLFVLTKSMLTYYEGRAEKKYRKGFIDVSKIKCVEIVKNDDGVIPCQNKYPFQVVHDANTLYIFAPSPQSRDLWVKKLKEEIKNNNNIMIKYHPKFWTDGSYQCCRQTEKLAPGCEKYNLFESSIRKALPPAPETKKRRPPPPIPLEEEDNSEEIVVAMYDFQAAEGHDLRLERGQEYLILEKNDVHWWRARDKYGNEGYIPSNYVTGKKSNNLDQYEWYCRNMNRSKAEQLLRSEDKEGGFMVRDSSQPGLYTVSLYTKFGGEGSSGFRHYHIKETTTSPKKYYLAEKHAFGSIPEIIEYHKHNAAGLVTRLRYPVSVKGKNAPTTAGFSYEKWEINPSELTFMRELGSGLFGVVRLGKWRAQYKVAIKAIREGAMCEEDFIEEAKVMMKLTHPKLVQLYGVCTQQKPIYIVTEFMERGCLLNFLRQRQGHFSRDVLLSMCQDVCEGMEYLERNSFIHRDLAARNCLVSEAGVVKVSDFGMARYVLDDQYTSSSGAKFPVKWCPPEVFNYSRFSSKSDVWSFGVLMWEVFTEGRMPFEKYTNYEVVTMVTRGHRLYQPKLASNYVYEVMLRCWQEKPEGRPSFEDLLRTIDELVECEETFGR

[8] = target: Activated CDC42 kinase 1 ; TNK2 ; Q07912 (Homo sapiens, UniProt Q07912); conditions: DIA-MS residual binding; binder
Activated CDC42 kinase 1 ; TNK2 ; Q07912, sequence (Q07912 whole entry): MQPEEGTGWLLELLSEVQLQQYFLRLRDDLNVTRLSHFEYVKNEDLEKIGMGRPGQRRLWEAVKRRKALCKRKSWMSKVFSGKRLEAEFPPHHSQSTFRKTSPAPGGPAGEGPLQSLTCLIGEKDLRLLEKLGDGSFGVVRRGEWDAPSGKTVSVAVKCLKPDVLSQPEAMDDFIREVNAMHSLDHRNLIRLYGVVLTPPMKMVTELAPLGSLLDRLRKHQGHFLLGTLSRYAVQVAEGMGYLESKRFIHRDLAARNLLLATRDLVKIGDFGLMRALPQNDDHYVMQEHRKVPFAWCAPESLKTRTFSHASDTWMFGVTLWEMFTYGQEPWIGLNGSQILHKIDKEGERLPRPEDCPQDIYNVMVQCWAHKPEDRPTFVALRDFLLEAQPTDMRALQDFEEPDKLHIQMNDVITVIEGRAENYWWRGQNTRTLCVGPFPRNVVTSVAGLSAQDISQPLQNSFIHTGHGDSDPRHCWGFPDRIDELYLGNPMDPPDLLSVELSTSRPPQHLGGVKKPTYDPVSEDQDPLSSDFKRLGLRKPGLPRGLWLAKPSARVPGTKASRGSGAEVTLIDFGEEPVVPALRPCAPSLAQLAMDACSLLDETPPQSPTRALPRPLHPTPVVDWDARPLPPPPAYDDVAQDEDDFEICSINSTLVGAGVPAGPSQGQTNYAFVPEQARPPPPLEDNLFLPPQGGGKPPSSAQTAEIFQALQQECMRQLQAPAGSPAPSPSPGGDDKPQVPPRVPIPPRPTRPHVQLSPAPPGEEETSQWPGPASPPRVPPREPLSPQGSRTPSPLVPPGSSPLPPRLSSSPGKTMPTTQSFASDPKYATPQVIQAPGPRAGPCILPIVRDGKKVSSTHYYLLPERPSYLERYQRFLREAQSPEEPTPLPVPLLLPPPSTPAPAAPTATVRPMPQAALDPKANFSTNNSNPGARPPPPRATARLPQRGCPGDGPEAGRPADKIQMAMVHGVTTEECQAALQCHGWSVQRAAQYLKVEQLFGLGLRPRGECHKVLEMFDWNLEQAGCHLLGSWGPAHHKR

Isoform 3 of Serine/threonine-protein kinase SIK3 ; SIK3-7 ; Q9Y2K2-7, sequence (Q9Y2K2 whole entry, canonical isoform, one chain of several): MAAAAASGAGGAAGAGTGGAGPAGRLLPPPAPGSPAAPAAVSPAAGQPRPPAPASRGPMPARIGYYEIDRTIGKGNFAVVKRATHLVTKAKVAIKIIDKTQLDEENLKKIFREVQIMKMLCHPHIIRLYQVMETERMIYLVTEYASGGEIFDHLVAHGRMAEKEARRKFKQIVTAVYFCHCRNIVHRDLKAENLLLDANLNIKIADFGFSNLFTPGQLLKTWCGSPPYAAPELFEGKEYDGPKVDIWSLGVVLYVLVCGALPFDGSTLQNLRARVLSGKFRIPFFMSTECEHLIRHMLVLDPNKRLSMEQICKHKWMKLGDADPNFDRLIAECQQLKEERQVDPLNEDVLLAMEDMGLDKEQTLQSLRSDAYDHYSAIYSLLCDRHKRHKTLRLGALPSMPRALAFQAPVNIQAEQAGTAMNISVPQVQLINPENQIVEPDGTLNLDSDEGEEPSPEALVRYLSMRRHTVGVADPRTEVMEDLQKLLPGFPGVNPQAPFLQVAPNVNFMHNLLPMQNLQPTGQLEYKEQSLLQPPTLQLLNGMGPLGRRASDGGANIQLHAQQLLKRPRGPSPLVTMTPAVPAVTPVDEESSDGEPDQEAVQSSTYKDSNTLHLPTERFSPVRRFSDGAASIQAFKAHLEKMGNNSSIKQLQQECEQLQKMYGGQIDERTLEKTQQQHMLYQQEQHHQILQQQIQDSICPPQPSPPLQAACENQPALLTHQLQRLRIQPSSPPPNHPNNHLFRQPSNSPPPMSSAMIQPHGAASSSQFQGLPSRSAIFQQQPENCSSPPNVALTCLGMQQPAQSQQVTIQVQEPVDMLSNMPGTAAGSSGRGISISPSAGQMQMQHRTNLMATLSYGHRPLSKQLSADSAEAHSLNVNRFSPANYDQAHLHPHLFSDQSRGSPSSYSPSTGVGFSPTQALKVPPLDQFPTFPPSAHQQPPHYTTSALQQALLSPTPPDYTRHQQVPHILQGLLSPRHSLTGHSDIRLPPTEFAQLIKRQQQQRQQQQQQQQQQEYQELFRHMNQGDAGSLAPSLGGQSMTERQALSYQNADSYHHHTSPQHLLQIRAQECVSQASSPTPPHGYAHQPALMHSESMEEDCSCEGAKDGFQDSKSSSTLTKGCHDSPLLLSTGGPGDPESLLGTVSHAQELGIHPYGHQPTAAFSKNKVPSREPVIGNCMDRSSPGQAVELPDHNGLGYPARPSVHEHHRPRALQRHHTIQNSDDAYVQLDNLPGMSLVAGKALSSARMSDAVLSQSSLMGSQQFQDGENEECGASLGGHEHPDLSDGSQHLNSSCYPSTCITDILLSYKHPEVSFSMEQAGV

Cc1nc(Nc2ncc(C(=O)Nc3c(C)cccc3Cl)s2)cc(N2CCN(CCO)CC2)n1 [dasatinib] was tested, and the “DIA-MS / % Intensity (30 µM/DMSO)” value [1] was 12.26%, the “DIA-MS / % Intensity (30 µM/DMSO)” value [2] was 35.82% and the “DIA-MS / % Intensity (30 µM/DMSO)” value [3] was 38.22%. For the same compound, the “DIA-MS / % Intensity (30 µM/DMSO)” value [4] was 47.56%, the “DIA-MS / % Intensity (30 µM/DMSO)” value [5] was 52% and the “DIA-MS / % Intensity (30 µM/DMSO)” value [6] was 39.55%. For the same compound, the “DIA-MS / % Intensity (30 µM/DMSO)” value [7] was 7.109% and the “DIA-MS / % Intensity (30 µM/DMSO)” value [8] was 2.81%.
